Data: PubChem BioAssay (NCI)
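Results reflect a 48-hour exposure of cells in 96-well plates to compound at five concentrations. Abbreviation: GI50, concentration required for 50% inhibition of growth. TGI marks complete inhibition of growth.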

What was measured:
Experiment in all cases: NCI tumour cell line growth inhibition, 48 h
786-0 renal = test system: 786-0 renal
A498 renal = test system: A498 renal
A549 NSCLC = test system: A549 NSCLC
ACHN renal = test system: ACHN renal
BT-549 breast = test system: BT-549 breast
CAKI-1 renal = test system: CAKI-1 renal
CCRF-CEM leukemia = test system: CCRF-CEM leukemia
COLO 205 colon = test system: COLO 205 colon
DU-145 prostate = test system: DU-145 prostate
EKVX NSCLC = test system: EKVX NSCLC
HCC-2998 colon = test system: HCC-2998 colon
HCT-116 colon = test system: HCT-116 colon
HCT-15 colon = test system: HCT-15 colon
HOP-62 NSCLC = test system: HOP-62 NSCLC
HOP-92 NSCLC = test system: HOP-92 NSCLC
HS 578T breast = test system: HS 578T breast
HT29 colon = test system: HT29 colon
IGROV1 ovarian = test system: IGROV1 ovarian
K-562 leukemia = test system: K-562 leukemia
KM12 colon = test system: KM12 colon
LOX IMVI melanoma = test system: LOX IMVI melanoma
M14 melanoma = test system: M14 melanoma
MALME-3M melanoma = test system: MALME-3M melanoma
MCF7 breast = test system: MCF7 breast
MDA-MB-231 breast = test system: MDA-MB-231 breast
MDA-MB-435 = test system: MDA-MB-435
MOLT-4 leukemia = test system: MOLT-4 leukemia
NCI-H226 lung = test system: NCI-H226 lung
NCI-H23 lung = test system: NCI-H23 lung
NCI-H460 lung = test system: NCI-H460 lung
NCI-H522 lung = test system: NCI-H522 lung
OVCAR-3 ovarian = test system: OVCAR-3 ovarian
OVCAR-4 ovarian = test system: OVCAR-4 ovarian
OVCAR-5 ovarian = test system: OVCAR-5 ovarian
OVCAR-8 ovarian = test system: OVCAR-8 ovarian
PC-3 prostate = test system: PC-3 prostate
RPMI-8226 leukemia = test system: RPMI-8226 leukemia
RXF 393 renal = test system: RXF 393 renal
SF-268 CNS = test system: SF-268 CNS
SF-295 CNS = test system: SF-295 CNS
SF-539 CNS = test system: SF-539 CNS
SK-MEL-2 melanoma = test system: SK-MEL-2 melanoma
SK-MEL-28 melanoma = test system: SK-MEL-28 melanoma
SK-MEL-5 melanoma = test system: SK-MEL-5 melanoma
SK-OV-3 ovarian = test system: SK-OV-3 ovarian
SN12C renal = test system: SN12C renal
SNB-19 CNS = test system: SNB-19 CNS
SNB-75 CNS = test system: SNB-75 CNS
SW-620 colon = test system: SW-620 colon
T-47D breast = test system: T-47D breast
TK-10 renal = test system: TK-10 renal
U251 CNS = test system: U251 CNS
UACC-257 melanoma = test system: UACC-257 melanoma
UACC-62 melanoma = test system: UACC-62 melanoma
UO-31 renal = test system: UO-31 renal

O=C(NN1C(=O)CSC12CCCCC2)c1[nH]c2ccc(Br)cc2c1-c1ccccc1
GI50 (786-0 renal): 18.9 µM
TGI (786-0 renal): 38.9 µM
GI50 (A498 renal): 24.1 µM
TGI (A498 renal): 60.5 µM
GI50 (A549 NSCLC): 15 µM
TGI (A549 NSCLC): 30.5 µM
GI50 (ACHN renal): 22.6 µM
TGI (ACHN renal): 58.1 µM
GI50 (BT-549 breast): 20.1 µM
TGI (BT-549 breast): 44.4 µM
GI50 (CAKI-1 renal): 25.5 µM
TGI (CAKI-1 renal): 80 µM
GI50 (CCRF-CEM leukemia): 19.6 µM
TGI (CCRF-CEM leukemia): 52.8 µM
GI50 (COLO 205 colon): 26.9 µM
TGI (COLO 205 colon): > 100 µM
GI50 (DU-145 prostate): 19.1 µM
TGI (DU-145 prostate): 38.8 µM
GI50 (EKVX NSCLC): 48.2 µM
TGI (EKVX NSCLC): > 100 µM
GI50 (HCC-2998 colon): 25.2 µM
TGI (HCC-2998 colon): 70.4 µM
GI50 (HCT-116 colon): 16.4 µM
TGI (HCT-116 colon): 35.3 µM
GI50 (HCT-15 colon): 17.1 µM
TGI (HCT-15 colon): 39.7 µM
GI50 (HOP-62 NSCLC): 23.6 µM
TGI (HOP-62 NSCLC): 51.4 µM
GI50 (HOP-92 NSCLC): 20.7 µM
TGI (HOP-92 NSCLC): 42.3 µM
GI50 (HS 578T breast): 23.1 µM
TGI (HS 578T breast): 66.1 µM
GI50 (HT29 colon): 13.9 µM
TGI (HT29 colon): 31.5 µM
GI50 (IGROV1 ovarian): 11.3 µM
TGI (IGROV1 ovarian): 28.6 µM
GI50 (K-562 leukemia): 13.4 µM
TGI (K-562 leukemia): 56.6 µM
GI50 (KM12 colon): 16.9 µM
TGI (KM12 colon): 33.4 µM
GI50 (LOX IMVI melanoma): 22 µM
TGI (LOX IMVI melanoma): 50.3 µM
GI50 (M14 melanoma): 27 µM
TGI (M14 melanoma): 79.7 µM
GI50 (MALME-3M melanoma): 20.3 µM
TGI (MALME-3M melanoma): 41.3 µM
GI50 (MCF7 breast): 14.6 µM
TGI (MCF7 breast): 31.5 µM
GI50 (MDA-MB-231 breast): 20.4 µM
TGI (MDA-MB-231 breast): 42.3 µM
GI50 (MDA-MB-435): 18.8 µM
TGI (MDA-MB-435): 48.9 µM
GI50 (MOLT-4 leukemia): 8.79 µM
TGI (MOLT-4 leukemia): 46.9 µM
GI50 (NCI-H226 lung): 23 µM
TGI (NCI-H226 lung): 55.7 µM
GI50 (NCI-H23 lung): 19.4 µM
TGI (NCI-H23 lung): 41.5 µM
GI50 (NCI-H460 lung): 20.7 µM
TGI (NCI-H460 lung): 57.9 µM
GI50 (NCI-H522 lung): 18.7 µM
TGI (NCI-H522 lung): 49.5 µM
GI50 (OVCAR-3 ovarian): 15.5 µM
TGI (OVCAR-3 ovarian): 29.4 µM
GI50 (OVCAR-4 ovarian): 13.3 µM
TGI (OVCAR-4 ovarian): 39.6 µM
GI50 (OVCAR-5 ovarian): 31.3 µM
TGI (OVCAR-5 ovarian): 95.5 µM
GI50 (OVCAR-8 ovarian): 16.3 µM
TGI (OVCAR-8 ovarian): 30.1 µM
GI50 (PC-3 prostate): 16.5 µM
TGI (PC-3 prostate): 32.2 µM
GI50 (RPMI-8226 leukemia): 12.7 µM
TGI (RPMI-8226 leukemia): 33.2 µM
GI50 (RXF 393 renal): 14.2 µM
TGI (RXF 393 renal): 30.3 µM
GI50 (SF-268 CNS): 20.3 µM
TGI (SF-268 CNS): 67.1 µM
GI50 (SF-295 CNS): 16.2 µM
TGI (SF-295 CNS): 31.9 µM
GI50 (SF-539 CNS): 21 µM
TGI (SF-539 CNS): 39.9 µM
GI50 (SK-MEL-2 melanoma): 36.2 µM
TGI (SK-MEL-2 melanoma): > 100 µM
GI50 (SK-MEL-28 melanoma): 24.8 µM
TGI (SK-MEL-28 melanoma): 69 µM
GI50 (SK-MEL-5 melanoma): 31.2 µM
TGI (SK-MEL-5 melanoma): > 100 µM
GI50 (SK-OV-3 ovarian): 46.3 µM
TGI (SK-OV-3 ovarian): > 100 µM
GI50 (SN12C renal): 17.6 µM
TGI (SN12C renal): 34.9 µM
GI50 (SNB-19 CNS): 24.1 µM
TGI (SNB-19 CNS): 64.2 µM
GI50 (SNB-75 CNS): 15.9 µM
TGI (SNB-75 CNS): 33.7 µM
GI50 (SW-620 colon): 34.7 µM
TGI (SW-620 colon): > 100 µM
GI50 (T-47D breast): 27.9 µM
TGI (T-47D breast): > 100 µM
GI50 (TK-10 renal): 17 µM
TGI (TK-10 renal): 33.2 µM
GI50 (U251 CNS): 15.8 µM
TGI (U251 CNS): 31.9 µM
GI50 (UACC-257 melanoma): 26.4 µM
TGI (UACC-257 melanoma): 72.5 µM
GI50 (UACC-62 melanoma): 10.9 µM
TGI (UACC-62 melanoma): 39.8 µM
GI50 (UO-31 renal): 22.4 µM
TGI (UO-31 renal): 68.9 µM
